Compared with `CSC(=NC(=O)c1ccccc1)Nc1c(Cl)cccc1Cl`, `CCN(C(=O)n1nnc2cc(Cl)c(Cl)cc21)c1ccccc1` is lower in melting point: 127 to 129 °C for the first, 120 °C for the second.

First: COc1ccc2[nH]c3c(c2c1)CCS(=O)(=O)CCC3
Second: COc1ccc2nc3ccc(C(C)=O)cn3c(=O)c2c1
The melting point of the first is higher: 231 to 233 °C for the first, 194 to 196 °C for the second.

First: COc1ccc(/C(=C/C(=O)N2CCN(C(=O)c3cc(OC)c(OC(C)=O)c(OC)c3)CC2)c2ccccc2Cl)cc1
Second: COc1ccc(/C=C(/C(=O)OC(C)(C)C)C(=O)c2ccccc2O)cc1
The melting point of the first is higher: 191 to 194 °C for the first, 129 to 132 °C for the second.

First: CNS(=O)(=O)c1cn(C)c2cc(C(F)(F)F)ccc2c1=O
Second: N=C(Nc1ccc(C(F)(F)F)cc1)c1ccc(Cl)cc1Cl
The melting point of the first is higher: 218 to 219 °C for the first, 108 to 109 °C for the second.

First: C[C@H](NC1=NC=NC(N)(Cl)N1)c1ccccc1 (stereo not given in full)
Second: CC(C)Nc1ccccc1C(=O)O
The melting point of the first is higher: 163 to 164 °C for the first, 109 to 110 °C for the second.

Compared with `N#Cc1ccc(SCc2ccccc2)cc1`, `N#CC(c1ccnc(OCc2ccccc2)n1)c1nc2ccccc2s1` (stereo not given) is higher in melting point: 85 °C for the first, 196 to 198 °C for the second.

Compared with `COc1cc2ncnc(N3CCN(C(=O)Nc4cc(Cl)nc(Cl)c4)CC3)c2cc1OC`, `COc1ccc(C(=O)c2cc([N+](=O)[O-])ccc2Cl)cc1OC` is lower in melting point: 267 to 270 °C for the first, 138 °C for the second.

First: Fc1ccccc1-c1ncn(CCCCN2CCOCC2)c1-c1ccncc1
Second: COc1cc(C(C)=O)ccc1OCCCN1CCC(c2nsc3ccccc23)CC1
The melting point of the first is higher: 103 to 104 °C for the first, 93 to 95 °C for the second.

Compared with `O=C(c1ccc(-c2ccccc2)cc1)C(Br)CC(=O)N1CCC[C@H]1C(=O)O` (stereo not given in full), `Nc1ccc(C(=O)OCCOC(=O)C[C@@H](C(=O)O)n2c3ccccc3c3ccccc32)cc1` is lower in melting point: 131 to 133 °C for the first, 100 °C for the second.

First: CC(=O)OC/C(=C(\C(=O)N(C)CC(C)(C)S)c1ccc(F)cc1)c1ccc(S(C)(=O)=O)cc1
Second: COc1ccc(C(=O)Nc2ccc(F)cc2)cc1NS(=O)(=O)c1cccc(C#N)c1
The melting point of the first is lower: 45 to 47 °C for the first, 221 to 225 °C for the second.

First: Cn1cc(C(=O)O)cc1C(=O)OC(c1ccc2c(c1)OCO2)c1ccc2c(c1)OCO2
Second: CC(C)(C)c1cc(C(C(=O)O)c2ccc(O)c(C(C)(C)C)c2)ccc1O
The melting point of the first is lower: 103 to 110 °C for the first, 173 °C for the second.

First: N#CC(C#N)=C1N(CCCN2CCCCC2)CCN1C1CCN(C(=O)C2CC2)CC1
Second: NC(=O)C1CCN(C(=O)CNC(=O)CNC(=O)CN2CCCC2=O)CC1
The melting point of the first is lower: 131 to 133 °C for the first, 225 to 227 °C for the second.

First: Cc1cc(C=O)cc(C)c1N
Second: CCOC(=O)c1cc(O)cc(OCC)c1
The melting point of the first is higher: 75 to 76 °C for the first, 62 to 63 °C for the second.

First: Cc1nn(CC(O)c2ccc(Cl)cc2)c(=O)n1-c1ccc(N2CCN(c3ccc(O)cc3)CC2)cc1 (single isomer, unassigned; (+))
Second: CCn1cc(-c2ccc([C@H](C)N3CC[C@](CC(C)(C)O)(c4ccc(F)cc4)OC3=O)cc2)ccc1=O
The melting point of the first is higher: 249 °C for the first, 172 to 174 °C for the second.

First: CCOC(=O)c1cc(-c2ccccc2)oc1C(F)(F)F
Second: COc1ccc(F)cc1C(C)(C)CC(O)(C(=O)Nc1ccccc1)C(F)(F)F (stereo not given)
The melting point of the first is lower: 44 to 45 °C for the first, 83 to 85 °C for the second.

Going from `O=c1[nH]c2c(O)cccc2n1CCN1CCN(c2cccc(C(F)(F)F)c2)CC1` to `O=C(CCN1CCN(Cc2ccccc2)CC1)c1ccc2[nH]c(=O)oc2c1`, the melting point rises from 110 °C to > 300 °C.

Going from `Cn1c(=O)c2c(-c3ccccc3)n(-c3ccccc3N)cc2n(C)c1=O` to `CN1CCC(C2(O)c3ccccc3CCn3cc(-c4ccccc4)nc32)CC1` (stereo not given), the melting point falls from > 300 °C to 225 °C.

First: COC(=O)c1cc(CC#N)cc(Cc2nc3c(F)c(F)cc(F)c3s2)c1
Second: COc1cc(F)c2ncc(F)cc2c1
The melting point of the first is higher: 130 to 132 °C for the first, 122 °C for the second.

Compared with `COc1ccc(N2C(=O)N(c3ccc(OC)cc3)C(C)c3cnc(Nc4ccccc4)nc32)cc1` (stereo not given), `O=C(NC(Cc1ccc(OCc2ccccc2)cc1)C(=O)O)c1cc2cc(-c3ccc(Cl)cc3)ccc2[nH]c1=O` (stereo not given) is higher in melting point: 228 to 234 °C for the first, 298 to 299 °C for the second.

`CCOC(=O)Nc1ccc(CCBr)c(Cl)c1` and `CCOC(=O)c1ccc(NCCOc2ccc(Cl)cc2Cl)cc1` cannot be ordered by melting point: 112 to 114 °C for the first, 111 to 113 °C for the second.

First: CC(=O)NC(=CC(C)C)c1ccccc1N1CCCCC1
Second: OCCN1CCn2c1nc1ccccc12
The melting point of the first is lower: 140 to 143 °C for the first, 158 to 160 °C for the second.

Compared with `CSc1c(C#N)nn(-c2c(Cl)cc(C(F)(F)F)cc2Cl)c1N(C)C`, `CCOC(=O)c1c(C(F)(F)F)nc(C(F)F)c(C#N)c1CC` is lower in melting point: 118 to 119 °C for the first, 38 to 40 °C for the second.

First: C(=C\c1nc(COc2ccc(CCCn3ncnn3)cc2)co1)/c1ccccc1
Second: COc1ccc(S(=O)(=O)N(CCC(F)(F)C(F)F)c2ccccc2/C=C/c2ccncc2)cc1
The melting point of the first is lower: 97 to 98 °C for the first, 124 to 126 °C for the second.

First: COC(=O)c1cc(SCc2ccsc2)c(Oc2ccccc2)c(S(N)(=O)=O)c1
Second: CCN(c1ccc(Cl)cc1C(O)c1ccccc1Cl)S(=O)(=O)c1ccc(OC)c(OC)c1 (stereo not given)
The melting point of the first is lower: 148 to 149 °C for the first, 154 °C for the second.

First: CCOC(=O)c1ncn(Cc2c(F)cccc2F)c1C(=O)OCC
Second: CCOC(=O)c1ncn(-c2nccs2)c1N
The melting point of the first is lower: 70 to 72 °C for the first, 120 to 123 °C for the second.

First: CCOc1cc(-c2cc(C(F)(F)F)n3cnc(-c4ccncc4)c3n2)ccc1C(F)(F)F
Second: Cc1cc(-c2cc(C(F)(F)F)n3ncc(C(=O)Nc4cccc(S(=O)(=O)N5CCN(C)CC5)c4)c3n2)ccc1C(F)(F)F
The melting point of the first is higher: 212 °C for the first, 199 °C for the second.

First: CCc1nc2ncnn2c(N[C@H]2CC[C@@H](C(C)(C)C)CC2)c1Cl
Second: CCNc1nc(Cl)c(Cl)c(N2CCN(CC[C@H]3CC[C@H](NC(=O)OC(C)(C)C)CC3)CC2)n1
The melting point of the first is lower: 120 to 122 °C for the first, 197 to 199 °C for the second.

First: COC(=O)C1NC(C(=O)OC)C(C(=O)OC)NC1C(=O)OC (stereo not given)
Second: CC(C)(C)OC(=O)NC(CC1=CC(=O)NC1=O)C(=O)OC(C)(C)C (stereo not given)
The melting point of the first is higher: 162 to 163 °C for the first, 104 to 105 °C for the second.

Compared with `O=C1CCC(N2Cc3c(OCc4cc(CN5CCOCC5)co4)cccc3C2=O)C(=O)N1` (stereo not given), `C=CC[C@H]1Cc2c(OCOC)cccc2C(=O)O1` is lower in melting point: 168 to 170 °C for the first, 74 to 75 °C for the second.

First: CCOC(=O)C(C)(Cc1ccc(O)c(OC)c1)NN (stereo not given)
Second: CNc1nc(Cc2ccc(OC)c(OC)c2)nc2sc(C#N)c(C)c12
The melting point of the first is lower: 114 to 116 °C for the first, 161 to 163 °C for the second.

First: COc1ccc(N)cc1C12CC3CC(CC(C3)C1)C2
Second: CC12CC3CC(C)(C1)CC(C(=O)NCc1cccs1)(C3)C2
The melting point of the first is higher: 140 to 141 °C for the first, 101 to 103 °C for the second.

First: O=C(Nc1ccccc1)N1CC2(CN1)CNN(C(=O)Nc1ccccc1)C2
Second: CCOC(=O)C1=C(C)NC(C)=C(C(=O)c2ccco2)C1c1ccccc1[N+](=O)[O-] (stereo not given)
The melting point of the first is higher: 227 °C for the first, 133 to 134 °C for the second.

Compared with `CC(C)(C)c1ccc(/C=C/C(=O)Nc2ccc3ccn(CCO)c3c2)cc1`, `CC(C)(C)c1ccc(C(O)CCCN2CCC(C(O)(c3ccccc3)c3ccc(C(C)(C)C)cc3)CC2)cc1` (stereo not given) is higher in melting point: 178 °C for the first, 179 to 182 °C for the second.

First: COc1cc2c3ccc(OC)c(OC)c3n(S(C)(=O)=O)c2cc1OC
Second: COc1ccc(C(=O)C(NCCc2ccc(OC)c(OC)c2Cl)SC)cc1 (stereo not given)
The melting point of the first is higher: 164 to 165 °C for the first, 75 to 78 °C for the second.

First: CCOC(=O)C=Cc1cc(OCc2ccccc2)ccc1-c1ccc(-c2cccc(C)c2)c(C=O)c1
Second: Oc1ccc2nc(-c3ccc(O)c4ccccc34)oc2c1
The melting point of the first is lower: 90 to 92 °C for the first, 194 to 196 °C for the second.

First: CN1CCC(OC(c2cccc(O)c2)c2nc3ccccc3s2)CC1 (stereo not given)
Second: CC(C)CC1(CC(C)C)CCc2c(OCc3ccc4ccccc4n3)cccc2C1O (stereo not given)
The melting point of the first is higher: 201 °C for the first, 144 to 146 °C for the second.

First: Oc1cc2cc(C3CCCC3)sc2c(Cl)c1Cl
Second: COc1c(Cl)cc(CNc2ccccc2[N+](=O)[O-])cc1Cl
The melting point of the first is lower: 62 to 63.5 °C for the first, 128 °C for the second.

First: CC(=O)N(O)Cc1cccc(C(O)C#Cc2ccsc2)c1 (stereo not given)
Second: CCCOc1ccc(CCC(=O)N2CCN(C)CC2)cc1-c1nc2c(C)cccc2c(=O)[nH]1
The melting point of the first is lower: 133 °C for the first, 184 to 185 °C for the second.

First: Cc1nnc(-c2ccc3occ(-c4ccccc4C(F)(F)F)c3c2)o1
Second: COC(=O)C(O)(c1cccc(C(F)(F)F)c1)c1cccc(C(F)(F)F)c1
The melting point of the first is higher: 159 to 160 °C for the first, 69 to 70 °C for the second.

Going from `CCCCCCCCCCCCCCCCCCOP(=O)(Cc1cc(Cl)c(O)c(C(C)(C)C)c1)OCCCCCCCCCCCCCCCCCC` to `CCCCCCCC(=O)N(C)Cc1cc(-c2ccc(C=CC(=O)O)cc2)cs1`, the melting point rises from 55 °C to 175 °C.

First: CCOC(=O)N1Cc2sc3ncn(CCO)c(=O)c3c2C1
Second: CN(C)C(=O)c1ncn2c(=O)n(CCCl)nnc12
The melting point of the first is higher: 243 to 245 °C for the first, 114 to 116 °C for the second.

First: CS(=O)(=O)NCCCCn1c(CO)nc2c(N)nc3ccccc3c21
Second: CCCCOc1nc(NC(C)=O)nc2ccc(Cl)nc12
The melting point of the first is higher: 216 to 219 °C for the first, 158 to 159 °C for the second.

First: OC1CSC(Oc2cc(-c3ccnc(F)c3)ccc2Cl)C(O)C1O (stereo not given)
Second: N#Cc1ncc(-c2ccc(Br)cc2)cn1
The melting point of the first is lower: 162 °C for the first, 202 to 204 °C for the second.

Compared with `C#CCN1CCNC1=C[N+](=O)[O-]`, `CC12CCC3c4cccc([N+](=O)[O-])c4CCC3C1CCC2O` (stereo not given) is higher in melting point: 146 to 147 °C for the first, 151 to 152 °C for the second.

Compared with `COc1ccc2nc(CSc3cc(C)ccn3)[nH]c2c1`, `COc1nc2cc(Cl)c(Cl)c(CSCc3ccccc3)c2nc1OC` is lower in melting point: 138 to 140 °C for the first, 121 to 122 °C for the second.

First: CC(C)(C)CC(=O)NCc1cccs1
Second: CSCC(C)(C)C(=O)N(C)c1cnc(-c2cncc(F)c2)s1
The melting point of the first is lower: 83 to 84 °C for the first, 98 to 102 °C for the second.

First: CN1C(=O)C(CCCN2CCN(c3ccc(F)cc3)CC2)Oc2cc3c(cc21)CCCC3 (stereo not given)
Second: COC(=O)c1ccc(CCN(C)c2cn([C@H]3CCc4c(F)cc(F)cc4C3)c(=S)[nH]2)cc1
The melting point of the first is lower: 98 to 98.5 °C for the first, 159 to 160 °C for the second.

First: CCCC1(CC(=O)O)OCC(=O)c2c1[nH]c1ccccc21 (stereo not given)
Second: O=S1(=O)N(CCCCBr)c2ccccc2N1c1ccc(Cl)cc1
The melting point of the first is higher: 206 to 208 °C for the first, 65 to 68 °C for the second.

First: CO/C=C1/C(=O)NC(=O)c2cc(Br)ccc21
Second: COc1ccc([N+](=O)[O-])cc1OC(F)F
The melting point of the first is higher: 242 to 243 °C for the first, 48 to 49 °C for the second.

Compared with `N#Cc1ccc(Cl)cc1OCC(O)CNc1ccccc1OC1CC=NNC1=O` (stereo not given), `CCCCNS(=O)(=O)CC(O)C(O)C(CC1CCCCC1)NC(=O)c1cnccn1` (stereo not given) is higher in melting point: 156 to 158 °C for the first, 178 to 180 °C for the second.

Reference: a melting point compilation (Tetko et al.; mined from patent text by program, amines drawn as free bases though some values may be those of a salt)
